# Assay results reported in publication PMC11714206, “Massively Parallel Screening of Toll/Interleukin‐1 Receptor (TIR)‐Derived Peptides Reveals Multiple Toll‐Like Receptors (TLRs)‐Targeting Immunomodulatory Peptides” (Advanced Science, 2024).
# Molecular target: T1, MyD88^TIR (Homo sapiens, UniProt Q99836)
# T1 construct: MyD88 (residues 148–296); 6xHis; made in house; host or cells: E. coli BL21 (DE3)
# Experiment: T‐Surf phage library (P8 and P3) selection against MyD88^TIR, four rounds, NGS read counts
# Type: binding
# Conditions: for P8_MyD88 Rank (after) / P8_MyD88 Rank (before): P8 library; for Population: 4th round of selection against MyD88 TIR, share of NGS reads; for P3_MyD88 Rank (after) / P3_MyD88 Rank (before): P3 library
# Description: T‐Surf libraries were screened against the immobilized TIR domains of two major human TLR adaptor proteins, MAL^TIR and MyD88^TIR, allowing cross‐species selection of TIR‐binding motifs with 190 946 TIR‐derived peptides in a single binding assay (Scheme 1). Enriched phage pools from the fourth round of selection were analyzed using NGS after barcoding the peptide‐coding regions of the phage pools.
# Phage display screening was performed by coating two wells of a 96‐well plate (Maxisorp, Thermo Fisher Scientific) with 100 µL of 5 µg mL^−1 TIR domains overnight; then, the coated wells were blocked with 200 µL of blocking buffer (0.2% BSA in PBS) and set aside for 1 h at 4 °C with gentle shaking. Next, 100 µL of the phage library was added to the wells and incubated for 1 h at room temperature (RT; 20 – 22 °C) with gentle shaking. The plate was washed four times with PBS containing 0.5% Tween‐20; the bound phages were eluted by adding 100 µL of 100 mM HCl to each well. The elute was neutralized with 10 µL of 1.0 M Tris‐HCl (pH 11.0). E. coli TG1 cells were grown to the log phase (A600 = ≈0.6), and 1 mL of the culture was incubated with 100 µL of the eluted phages for 30 min at 37 °C, with shaking at 200 rpm. Next, 1 µL of M13KO7 helper phages was added, followed by incubation for 45 min at 37 °C, with shaking. Subsequently, the cells were transferred to 25 mL of 2× yeast extract tryptone/carbenicillin/kanamycin medium and incubated overnight at 37 °C with shaking at 200 rpm. The amplified phages were precipitated with 20% PEG‐8000/2.5 M NaCl to be used for the next round of selection.
# The naïve T‐Surf libraries in P8 and P3 and the enriched phage pools after four rounds were barcoded for NGS as previously described.^[ [59] ^] Briefly, 5 µL of the phage pool was used as a template for 20 cycles of a 50 µL PCR reaction using […] each of forward and reverse barcoded primers and PrimeSTAR Max DNA Polymerase. The PCR products were purified using Expin Gel SV (GeneAll). The NGS samples were quantified using qPCR, following the qPCR Quantification Protocol Guide (KAPA Library Quantification kits for Illumina Sequencing Platform), and qualified using the TapeStation High Sensitivity D1000 ScreenTape (Agilent Technologies). The indexed libraries were further sequenced by Macrogen (Seoul, Republic of Korea) using the NovaSeq platform (Illumina) with 100 bp paired‐end reads. The reads were demultiplexed by barcodes and filtered for an average Phred quality score of at least 30, followed by trimming the flanking consensus sequences using Cutadapt (version 2.3). Peptide sequence populations were analyzed according to the read counts.
# [1] = P8_MyD88: rank by count after grouping
# [2] = P8_MyD88: rank by count before grouping
# [3] = selection against MyD88 TIR, rank by count after grouping
# [4] = selection against MyD88 TIR, rank by count before grouping
# [5] = P8_MyD88 pool: P8 T-Surf phage library
# [6] = P8_MyD88: rank by NGS read count after grouping
# [7] = P8_MyD88: rank by NGS read count before grouping
# [8] = selection against MyD88, rank after grouping
# [9] = selection against MyD88, rank before grouping
# [10] = 4R selection against MyD88, rank after grouping
# [11] = 4R selection against MyD88, rank before grouping
# [12] = selection against MyD88, rank by count after grouping
# [13] = selection against MyD88, rank by count before grouping
# [14] = P3_MyD88: rank by count after grouping
# [15] = P3_MyD88: rank by count before grouping
# [16] = P3_MyD88 pool: P3 T-Surf phage library
# T1 sequence (Q99836 148-296): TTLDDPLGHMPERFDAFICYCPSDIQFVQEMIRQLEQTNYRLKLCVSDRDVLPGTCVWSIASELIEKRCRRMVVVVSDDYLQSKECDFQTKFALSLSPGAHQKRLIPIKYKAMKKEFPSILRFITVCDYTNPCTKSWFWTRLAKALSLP
sequence,measurement,setting,value
LGYHCMDWEYFVGIED,Rank (after),[1],390
same,Rank (before),[2],3228
SIATLLYDQLSWLDIH,P8_MyD88 Rank (after),[3],201
same,P8_MyD88 Rank (before),[4],293
DYTSSPWALEELLKIM,Rank (after),[1],159
same,Rank (before),[2],171
same,Population,[5],0.00809%
DWGWDYLLPQLEGSAG,Rank (after),[6],990
same,Rank (before),[7],2482
YLKWGYPRFWDRQRFP,P3_MyD88 Rank (after),[3],282
same,P3_MyD88 Rank (before),[4],1431
DPHQHQAFWDRLWEKL,P8_MyD88 Rank (after),[3],286
same,P8_MyD88 Rank (before),[4],560
YTALTIAAFIPFVIM,P3_MyD88 Rank (after),[8],574
same,P3_MyD88 Rank (before),[9],1647
KWLWDKLIYARSRNPH,P3_MyD88 Rank (after),[8],490
same,P3_MyD88 Rank (before),[9],3584
DPQDLDWFLNVWLTW,P8_MyD88 Rank (after),[8],575
same,P8_MyD88 Rank (before),[9],2743
LGYHWIDWSILWALK,P8_MyD88 Rank (after),[3],231
same,P8_MyD88 Rank (before),[4],409
LGYHWNDREYFLDIED,P8_MyD88 Rank (after),[8],536
same,P8_MyD88 Rank (before),[9],3307
DPQVLVWLYERPFRQI,P8_MyD88 Rank (after),[10],629
same,P8_MyD88 Rank (before),[11],2644
YLKWAIRGFGIVCVL,P3_MyD88 Rank (after),[3],238
same,P3_MyD88 Rank (before),[4],862
WALYELLHILHARELF,P8_MyD88 Rank (after),[8],532
same,P8_MyD88 Rank (before),[9],1401
FIDFLFDAFETKGIFV,Rank (after),[1],103
same,Rank (before),[2],107
same,Population,[5],0.0216%
VQWDDPWFWDKLAY,P8_MyD88 Rank (after),[10],623
same,P8_MyD88 Rank (before),[11],2231
STAMTNRGFHTFRDND,P3_MyD88 Rank (after),[12],688
same,P3_MyD88 Rank (before),[13],1427
DTKLKKGESIAPALMR,P3_MyD88 Rank (after),[12],704
same,P3_MyD88 Rank (before),[13],2101
KEVEGWRDALTKVACR,Rank (after),[14],109
same,Rank (before),[15],1305
YLLLGVFQTIFARRTA,P8_MyD88 Rank (after),[3],276
same,P8_MyD88 Rank (before),[4],1965
NFANSSWALDELWLIL,Rank (after),[1],132
same,Rank (before),[2],145
same,Population,[5],0.0116%
QQISLVQLKVLEESHV,P8_MyD88 Rank (after),[10],648
same,P8_MyD88 Rank (before),[11],3604
GWAWDYLLPNLEGPAG,P8_MyD88 Rank (after),[12],703
same,P8_MyD88 Rank (before),[13],2275
TSHFLDSYWAMFELNM,Rank (after),[1],140
same,Rank (before),[2],152
same,Population,[5],0.01%
KIARCMIFGVFWKAP,P8_MyD88 Rank (after),[8],527
same,P8_MyD88 Rank (before),[9],3897
ELDFSHFWLFDGHATGAA,Rank (after),[6],1003
same,Rank (before),[7],3187
DPQDLNGFMNVCLAR,P8_MyD88 Rank (after),[8],488
same,P8_MyD88 Rank (before),[9],2947
KERPFGAQRAEKWRAALT,P3_MyD88 Rank (after),[8],567
same,P3_MyD88 Rank (before),[9],3671
DPQDHYLLYERLVSLF,Rank (after),[6],934
same,Rank (before),[7],2964
SRFREGLWRLLKLSKK,P3_MyD88 Rank (after),[12],715
same,P3_MyD88 Rank (before),[13],3278
NQWRNALTKVASL,Population,[16],0.00378%
DPQDLVWFYERPVSIF,Rank (after),[6],909
same,Rank (before),[7],2712
HWIEWEYFVGIEEHIK,Rank (after),[1],397
same,Rank (before),[2],3541
DHHLICRVAKRLNRKFW,Rank (after),[14],129
same,Rank (before),[15],631
QQVVRYRLEIVRVTKL,P3_MyD88 Rank (after),[12],738
same,P3_MyD88 Rank (before),[13],2882
YARSDDNYYYWVTHVLLRHL,P8_MyD88 Rank (after),[8],507
same,P8_MyD88 Rank (before),[9],1764
WALDDLLQILQARELF,Rank (after),[6],988
same,Rank (before),[7],1523
SSFREDLCRLLALSNK,P3_MyD88 Rank (after),[3],286
same,P3_MyD88 Rank (before),[4],3226
NDLVHVWSSKANSLVG,Population,[16],0.00495%
WDFASNMEQFWIVCI,P8_MyD88 Rank (after),[12],706
same,P8_MyD88 Rank (before),[13],1619
DEAWFLTKLRISLEHL,P8_MyD88 Rank (after),[8],576
same,P8_MyD88 Rank (before),[9],2581
YITRFDDIQQIELFWD,P8_MyD88 Rank (after),[12],688
same,P8_MyD88 Rank (before),[13],2121
DHHLDLPWGKAKKPEILG,P3_MyD88 Rank (after),[8],487
same,P3_MyD88 Rank (before),[9],1999
SENYATSPWALTELVH,P3_MyD88 Rank (after),[3],278
same,P3_MyD88 Rank (before),[4],2986
WALDELLQLQHARELF,P8_MyD88 Rank (after),[8],561
same,P8_MyD88 Rank (before),[9],1431
WALNELLEILYANETM,P8_MyD88 Rank (after),[10],663
same,P8_MyD88 Rank (before),[11],1535
SSFRKGLWRLLELSKK,Population,[16],0.00408%
YYLDPSHLRKQSVEFS,Rank (after),[14],473
same,Rank (before),[15],1451
YAFTGHLHRYLVQRAA,Population,[16],0.0032%
DPQDLGWFYERLLSLF,Rank (after),[1],441
same,Rank (before),[2],2722
APQDLEWFYERLVSLIL,Rank (after),[1],431
same,Rank (before),[2],2322
DYASYDDNDYYWVTHVLLRHL,Rank (after),[1],439
same,Rank (before),[2],1058
DYASSSWYLDELVHILW,P8_MyD88 Rank (after),[3],262
same,P8_MyD88 Rank (before),[4],693
KDVEGWRDALTKVASL,Population,[16],0.00349%
DWVWVYRLPNLEGPAG,Rank (after),[6],979
same,Rank (before),[7],2403
SSFRKGLWRLLELLKK,Rank (after),[14],150
same,Rank (before),[15],3231
YAASPWWFDELLQIA,P8_MyD88 Rank (after),[10],633
same,P8_MyD88 Rank (before),[11],1740
FLSYLALEKRFSPIGQ,P3_MyD88 Rank (after),[8],515
same,P3_MyD88 Rank (before),[9],1343
DRSIWDRLLYSLHVTE,Rank (after),[6],996
same,Rank (before),[7],3141
SAAYYEFGERLIGRVE,Rank (after),[6],873
same,Rank (before),[7],3705
DPQDLVWFYESLVSLF,P8_MyD88 Rank (after),[3],263
same,P8_MyD88 Rank (before),[4],2714
NELVHVWSSKANTWW,P3_MyD88 Rank (after),[10],628
same,P3_MyD88 Rank (before),[11],3431
YELAFSHCCLFEGHST,Rank (after),[6],1007
same,Rank (before),[7],1925
YAFTGHLHRYLVQRL,Rank (after),[14],134
same,Rank (before),[15],834
YALTCHLHRYLVQRGV,P3_MyD88 Rank (after),[3],204
same,P3_MyD88 Rank (before),[4],1552
NQCRNALTAAANLSGC,Rank (after),[14],149
same,Rank (before),[15],3467
DHHLDLLRGIAIKLEILG,P3_MyD88 Rank (after),[12],722
same,P3_MyD88 Rank (before),[13],1998
DPQDLDRFYERLLSLL,Rank (after),[1],428
same,Rank (before),[2],2840
QYSDTLLEHTANFRM,Rank (after),[14],392
same,Rank (before),[15],2842
YAFTGHLHRYIEQRSG,P3_MyD88 Rank (after),[10],610
same,P3_MyD88 Rank (before),[11],1533
LKWGDPWFWDRLRFA,Population,[16],0.00437%
SSIREGLWRQLELSKK,P3_MyD88 Rank (after),[10],665
same,P3_MyD88 Rank (before),[11],3277
FFSGFREQEDFISKRW,P8_MyD88 Rank (after),[12],681
same,P8_MyD88 Rank (before),[13],1297
DPQLLDWFYVRLVSLL,Rank (after),[6],1001
same,Rank (before),[7],3022
MVGGDTFHDFLDIISM,P8_MyD88 Rank (after),[10],655
same,P8_MyD88 Rank (before),[11],3677
DQHLDLPRGKAIKPELLG,Rank (after),[14],475
same,Rank (before),[15],2066
YLKWGYPWFWDRLRYAM,Rank (after),[14],97
same,Rank (before),[15],342
DHHLDLPRGKAIKE,P3_MyD88 Rank (after),[8],550
same,P3_MyD88 Rank (before),[9],2017
YTALANSGFHTFHDND,P3_MyD88 Rank (after),[10],613
same,P3_MyD88 Rank (before),[11],1634
GPQELEWCYERLVTKF,P8_MyD88 Rank (after),[10],604
same,P8_MyD88 Rank (before),[11],2278
GFLYHAFAREGIKIFM,Rank (after),[14],124
same,Rank (before),[15],1793
VSHLSDSFERYGIMFF,P8_MyD88 Rank (after),[12],731
same,P8_MyD88 Rank (before),[13],2266
